Measured values: PMC12340637, “Transport of Small Aliphatic Amines by Polyspecific Solute Carriers: Deciphering Structure–Function Relationships” (ACS Pharmacology & Translational Science, 2025)
Like-named read-outs stand apart in the source and are kept apart here. Marks after values point to notes of the source that are not given here.

Assays:
OCT2 (SLC22A2) = target: T1, OCT2 (SLC22A2) (Homo sapiens, UniProt O15244); test: Cellular uptake into OCT2-overexpressing HEK293 cells vs EV control cells (HPLC-MS/MS); conditions: for uptake ratio OCT2 (transporter-overexpressing cells over EV control cells): mean (±SD, N): 2 min, HEK293; for K m (±SEM) / v max (±SEM): OCT2, net uptake, Michaelis–Menten; for substrate activity at OCT2 (in words): uptake ratio ≥2 = notable transport
T1 sequence (O15244 1-555): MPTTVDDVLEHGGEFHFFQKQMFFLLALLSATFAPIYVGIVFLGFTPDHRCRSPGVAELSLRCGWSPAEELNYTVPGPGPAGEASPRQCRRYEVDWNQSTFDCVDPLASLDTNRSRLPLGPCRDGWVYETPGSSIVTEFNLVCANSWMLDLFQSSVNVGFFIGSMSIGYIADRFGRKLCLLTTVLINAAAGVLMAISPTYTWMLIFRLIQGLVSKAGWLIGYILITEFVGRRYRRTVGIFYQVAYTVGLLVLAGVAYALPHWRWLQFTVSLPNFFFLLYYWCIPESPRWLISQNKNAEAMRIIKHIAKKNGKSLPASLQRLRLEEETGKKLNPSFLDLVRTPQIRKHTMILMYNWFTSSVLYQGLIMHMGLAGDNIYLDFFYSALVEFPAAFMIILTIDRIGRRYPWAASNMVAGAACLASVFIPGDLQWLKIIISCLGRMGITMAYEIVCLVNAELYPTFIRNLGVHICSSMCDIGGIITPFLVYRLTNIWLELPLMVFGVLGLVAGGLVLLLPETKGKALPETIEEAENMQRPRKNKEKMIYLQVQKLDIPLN

MATE1 (SLC47A1) = target: T2, MATE1 (SLC47A1) (Homo sapiens, UniProt Q96FL8); test: Cellular uptake into MATE1-overexpressing HEK293 cells vs EV control cells (HPLC-MS/MS); conditions: for uptake ratio MATE1 (transporter-overexpressing cells over EV control cells): mean (±SD, N): 2.5 μM substrate, 1 min, 30 mM NH4Cl preincubation, HEK293; for K m (±SEM) / v max (±SEM): MATE1, net uptake, Michaelis–Menten; for substrate activity at MATE1 (in words): uptake ratio ≥2 = notable transport
T2 sequence (Q96FL8 1-570): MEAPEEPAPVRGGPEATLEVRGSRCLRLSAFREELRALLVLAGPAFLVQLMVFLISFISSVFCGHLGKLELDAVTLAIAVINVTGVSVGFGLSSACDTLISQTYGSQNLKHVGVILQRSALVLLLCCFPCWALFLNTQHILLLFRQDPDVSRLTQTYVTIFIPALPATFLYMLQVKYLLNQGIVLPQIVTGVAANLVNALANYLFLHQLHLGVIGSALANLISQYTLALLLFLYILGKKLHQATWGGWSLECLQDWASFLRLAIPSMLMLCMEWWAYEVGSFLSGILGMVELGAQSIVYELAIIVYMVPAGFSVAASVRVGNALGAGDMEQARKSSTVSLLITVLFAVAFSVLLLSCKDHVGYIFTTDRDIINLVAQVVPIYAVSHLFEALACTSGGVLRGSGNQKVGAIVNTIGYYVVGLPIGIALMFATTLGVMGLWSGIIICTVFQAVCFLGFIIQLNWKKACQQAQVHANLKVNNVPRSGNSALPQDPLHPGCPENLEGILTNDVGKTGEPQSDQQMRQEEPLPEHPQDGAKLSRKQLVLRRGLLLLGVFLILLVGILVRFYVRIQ

OCT1 (SLC22A1) = target: T3, OCT1 (SLC22A1) (Homo sapiens, UniProt O15245); test: Cellular uptake into OCT1-overexpressing HEK293 cells vs EV control cells (HPLC-MS/MS); conditions: for uptake ratio OCT1 (transporter-overexpressing cells over EV control cells): mean (±SD, N): 2 min, HEK293; for K m (±SEM) / v max (±SEM): OCT1, net uptake, Michaelis–Menten
T3 sequence (O15245 1-554): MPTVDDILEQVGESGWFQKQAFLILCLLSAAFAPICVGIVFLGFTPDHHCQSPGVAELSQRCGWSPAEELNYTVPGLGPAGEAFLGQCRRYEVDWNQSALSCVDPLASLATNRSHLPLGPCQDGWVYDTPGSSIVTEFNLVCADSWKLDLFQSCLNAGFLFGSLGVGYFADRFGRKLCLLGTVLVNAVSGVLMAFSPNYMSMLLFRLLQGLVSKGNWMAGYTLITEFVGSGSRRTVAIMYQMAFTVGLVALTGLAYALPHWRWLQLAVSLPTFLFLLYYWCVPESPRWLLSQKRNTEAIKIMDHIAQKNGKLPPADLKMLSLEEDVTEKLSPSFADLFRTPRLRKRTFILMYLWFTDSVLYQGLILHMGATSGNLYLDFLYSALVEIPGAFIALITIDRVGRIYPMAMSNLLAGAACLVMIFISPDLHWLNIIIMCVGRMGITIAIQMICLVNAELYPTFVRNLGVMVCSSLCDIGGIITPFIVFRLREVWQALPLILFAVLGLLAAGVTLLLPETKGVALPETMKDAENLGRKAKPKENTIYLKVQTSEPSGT

OCT3 (SLC22A3) = target: T4, OCT3 (SLC22A3) (Homo sapiens, UniProt O75751); test: Cellular uptake into OCT3-overexpressing HEK293 cells vs EV control cells (HPLC-MS/MS); conditions: for uptake ratio OCT3 (transporter-overexpressing cells over EV control cells): mean (±SD, N): 2 min, HEK293; for K m (±SEM) / v max (±SEM): OCT3, net uptake, Michaelis–Menten
T4 sequence (O75751 1-556): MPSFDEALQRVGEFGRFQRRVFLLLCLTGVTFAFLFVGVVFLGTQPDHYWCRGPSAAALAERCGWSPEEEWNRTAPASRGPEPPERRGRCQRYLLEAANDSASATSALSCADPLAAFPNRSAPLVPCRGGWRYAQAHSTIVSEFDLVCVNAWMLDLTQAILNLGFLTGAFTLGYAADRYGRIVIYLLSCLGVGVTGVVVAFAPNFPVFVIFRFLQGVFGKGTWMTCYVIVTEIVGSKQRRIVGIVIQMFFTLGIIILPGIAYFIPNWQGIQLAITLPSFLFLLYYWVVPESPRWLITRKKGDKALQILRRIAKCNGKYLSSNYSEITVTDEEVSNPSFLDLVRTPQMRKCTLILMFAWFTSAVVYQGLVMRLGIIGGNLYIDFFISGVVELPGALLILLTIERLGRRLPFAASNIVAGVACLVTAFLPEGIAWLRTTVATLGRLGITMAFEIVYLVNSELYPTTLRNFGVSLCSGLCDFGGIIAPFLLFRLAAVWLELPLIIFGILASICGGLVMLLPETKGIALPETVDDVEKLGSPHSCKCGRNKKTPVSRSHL

MATE2-K (SLC47A2) = MATE2-K (SLC47A2) (Homo sapiens, UniProt Q86VL8); test: Cellular uptake into MATE2-K-overexpressing HEK293 cells vs EV control cells (HPLC-MS/MS); conditions: for uptake ratio MATE2K (transporter-overexpressing cells over EV control cells): mean (±SD, N): 2.5 μM substrate, 1 min, 30 mM NH4Cl preincubation, HEK293
[1] = uptake ratio ≥2 = notable transport

MATE2-K (SLC47A2), sequence (Q86VL8 1-566 isoform Q86VL8-3): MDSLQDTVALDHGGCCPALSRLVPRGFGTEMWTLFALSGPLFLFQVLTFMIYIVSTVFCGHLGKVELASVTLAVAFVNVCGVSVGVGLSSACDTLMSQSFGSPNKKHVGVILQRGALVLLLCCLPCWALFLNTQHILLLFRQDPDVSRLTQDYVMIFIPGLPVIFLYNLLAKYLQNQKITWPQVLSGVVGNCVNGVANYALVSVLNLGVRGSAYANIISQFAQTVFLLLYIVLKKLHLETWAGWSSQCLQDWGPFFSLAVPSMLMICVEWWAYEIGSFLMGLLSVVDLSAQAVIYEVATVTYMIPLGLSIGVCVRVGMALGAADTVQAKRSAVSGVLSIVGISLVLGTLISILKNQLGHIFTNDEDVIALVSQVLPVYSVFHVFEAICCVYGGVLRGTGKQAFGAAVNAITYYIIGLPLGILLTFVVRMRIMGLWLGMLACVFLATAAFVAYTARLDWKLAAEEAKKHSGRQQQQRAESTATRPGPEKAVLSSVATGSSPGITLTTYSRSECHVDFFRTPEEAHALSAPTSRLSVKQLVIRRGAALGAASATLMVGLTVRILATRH

Compound	uptake ratio OCT2 (transporter-overexpressing cells over EV control cells): mean (±SD, N) (OCT2 (SLC22A2); 10 μM substrate)	K m (±SEM) (OCT2 (SLC22A2))	v max (±SEM) (OCT2 (SLC22A2))	uptake ratio MATE1 (transporter-overexpressing cells over EV control cells): mean (±SD, N) (MATE1 (SLC47A1))	uptake ratio OCT3 (transporter-overexpressing cells over EV control cells): mean (±SD, N) (OCT3 (SLC22A3); 10 μM substrate)	uptake ratio MATE2K (transporter-overexpressing cells over EV control cells): mean (±SD, N) (MATE2-K (SLC47A2))	also measured
NCC(O)CN [1,3-diamino-2-propanol]	3.7 (2.4, 3)	65 (±91) μM	110 (±56) pmol/mg protein/min	1.1 (0.1, 3)	1.6 (0.3, 3)	0.8 (0.1, 3)	uptake ratio OCT1 (transporter-overexpressing cells over EV control cells): mean (±SD, N) (OCT1 (SLC22A1); 10 μM substrate): 1.4 (0.6, 5)
CCN(CC)CCO [2-(diethylamino)ethanol]	4.0 (1.5, 3)		794 (±109) pmol/mg protein/min	1 (0.13, 3)	1.2 (0.1, 3)	1.4 (0.2, 3)	
CN(CCCN)CCCN [3,3′-diamino-N-methyldipropylamin]							substrate activity at OCT1 (in words) (OCT1 (SLC22A1)): did not show any substrate activity; substrate activity at OCT3 (in words) (OCT3 (SLC22A3)): did not show any substrate activity; substrate activity at MATE2-K (in words) (MATE2-K (SLC47A2)): did not show any substrate activity
CNCCCO [3-methylamino-1-propanol]	2.6 (1.0, 4) ^a			0.8 (0.2, 4)	1.0 (0.2, 3)	1.1 (0.4, 4)	uptake ratio OCT1 (transporter-overexpressing cells over EV control cells): mean (±SD, N) (OCT1 (SLC22A1); 10 μM substrate): 1.2 (0.2, 3)
NCCCCO [4-amino-1-butanol]		1243 (±938) μM	3103 (±1458) pmol/mg protein/min	1.0 (0.01, 3)		0.9 (0.3, 3)	uptake ratio OCT2 (transporter-overexpressing cells over EV control cells): mean (±SD, N) (OCT2 (SLC22A2); 2.5 μM substrate (§)): 5.4 (1.1, 3) ^a; uptake ratio OCT1 (transporter-overexpressing cells over EV control cells): mean (±SD, N) (OCT1 (SLC22A1); 2.5 μM substrate (§)): 1.1 (0.3, 3); uptake ratio OCT3 (transporter-overexpressing cells over EV control cells): mean (±SD, N) (OCT3 (SLC22A3); 2.5 μM substrate (§)): 1.1 (0.3, 3)
NCCCCCO [5-amino-1-pentanol]		1260 (±452) μM	14,996 (±2181) pmol/mg protein/min			1.2 (0.6, 5)	substrate activity at OCT2 (in words) (OCT2 (SLC22A2)): notable transport; K m (±SEM) (MATE1 (SLC47A1)): 1040 (±451) μM; v max (±SEM) (MATE1 (SLC47A1)): 10,761 (±2694) pmol/mg protein/min; substrate activity at MATE1 (in words) (MATE1 (SLC47A1)): notable transport; K m (±SEM) (OCT1 (SLC22A1)): 132 (±121) μM; v max (±SEM) (OCT1 (SLC22A1)): 135 (±37) pmol/mg protein/min; substrate activity at OCT1 (in words) (OCT1 (SLC22A1); [1]): notable transport; K m (±SEM) (OCT3 (SLC22A3)): 5776 (±2458) μM; v max (±SEM) (OCT3 (SLC22A3)): 5271 (±1641) pmol/mg protein/min; substrate activity at OCT3 (in words) (OCT3 (SLC22A3); [1]): notable transport
NCCCCCCO [6-amino-1-hexanol]		1176 (±273) μM	16,933 (±2577) pmol/mg protein/min			1.4 (0.3, 3)	substrate activity at OCT2 (in words) (OCT2 (SLC22A2)): notable transport; K m (±SEM) (MATE1 (SLC47A1)): 253 (±47) μM; v max (±SEM) (MATE1 (SLC47A1)): 14,115 (±1479) pmol/mg protein/min; substrate activity at MATE1 (in words) (MATE1 (SLC47A1)): notable transport; K m (±SEM) (OCT1 (SLC22A1)): 487 (±171) μM; v max (±SEM) (OCT1 (SLC22A1)): 1656 (±294) pmol/mg protein/min; substrate activity at OCT1 (in words) (OCT1 (SLC22A1); [1]): notable transport; K m (±SEM) (OCT3 (SLC22A3)): 1168 (±151) μM; v max (±SEM) (OCT3 (SLC22A3)): 4675 (±384) pmol/mg protein/min; substrate activity at OCT3 (in words) (OCT3 (SLC22A3); [1]): notable transport
C[C@H](N)CCO [(S)-3-aminobutan-1-ol]							stereoselectivity OCT3 (uptake ratio of the more strongly transported enantiomer divided by that of the other) (OCT3 (SLC22A3); label = favoured enantiomer): 1.2-fold for (S)
CC[C@H](C)[C@H](N)CO [(S)-(+)-isoleucinol]		116 (±59) μM	1303 (±287) pmol/mg protein/min	1.1 (0.2, 3)		1.0 (0.1, 3)	uptake ratio OCT2 (transporter-overexpressing cells over EV control cells): mean (±SD, N) (OCT2 (SLC22A2); 2.5 μM substrate (§)): 7.6 (1.5, 4) ^b; K m (±SEM) (OCT2 (SLC22A2); listed as isoleucinol): 116 µM; uptake ratio OCT1 (transporter-overexpressing cells over EV control cells): mean (±SD, N) (OCT1 (SLC22A1); 2.5 μM substrate (§)): 1.0 (0.1, 4); uptake ratio OCT3 (transporter-overexpressing cells over EV control cells): mean (±SD, N) (OCT3 (SLC22A3); 2.5 μM substrate (§)): 0.9 (0.1, 4)
CCCCCN [amylamine]	6.7 (3.2, 4) ^a			0.5 (0.2, 3) ^a	0.9 (0.3, 4)	0.8 (0.3, 3)	uptake ratio OCT1 (transporter-overexpressing cells over EV control cells): mean (±SD, N) (OCT1 (SLC22A1); 10 μM substrate): 1.2 (0.5, 4)
CCCCN [butylamine]	6.4 (2.0, 5) ^b			1.0 (0.1, 4)	1.5 (1.0, 5)	1.2 (0.3, 4)	
CC(C)N [isopropylamine]	5.3 (1.7, 3) ^a			1.4 (0.2, 3)	1.0 (0.2, 3)		uptake ratio OCT1 (transporter-overexpressing cells over EV control cells): mean (±SD, N) (OCT1 (SLC22A1); 10 μM substrate): 1.3 (0.2, 3)
NCCCCNCCCN [spermidine-(butyl-d8)]				1.0 (0.4, 3)		0.8 (0.1, 3)	
CC(C)(C)N [tert-butylamine]	3.8 (1.6, 4) ^a			1.3 (0.3, 3)	1.3 (0.5, 3)	1.0 (0.2, 3)	
NCCN(CCN)CCN [tris(2-aminoethyl)amine]							substrate activity at OCT3 (in words) (OCT3 (SLC22A3); [1]): did not show any substrate activity
